Reference: patent US20230183193A1, “4-DIFLUOROMETHYL BENZOYL AMIDES WITH HERBICIDAL ACTION” (BAYER CROPSCIENCE AKTIENGESELLSCHAFT, priority 2017, published 2023)

Columns and labels:
[1] = test system: Abutilon theophrasti; experiment: Pre-emergence herbicidal action, ABUTH; assay type: in vivo
How it was run: (§1)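 Percent herbicidal activity rated by eye 3 weeks after pre-emergence soil-surface application, compared with untreated pots. Seeds sat under sandy loam; sprays carried 0.2% wetting agent.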

[2] = test system: Alopecurus myosuroides; experiment: Pre-emergence herbicidal action, ALOMY; assay type: in vivo
How it was run: as §1

[3] = test system: Amaranthus retroflexus; experiment: Pre-emergence herbicidal action, AMARE; assay type: in vivo
How it was run: as §1

[4] = test system: Avena fatua; experiment: Pre-emergence herbicidal action, AVEFA; assay type: in vivo
How it was run: as §1

[5] = test system: Cyperus serotinus; experiment: Pre-emergence herbicidal action, CYPES; assay type: in vivo
How it was run: as §1

[6] = test system: Matricaria inodora; experiment: Pre-emergence herbicidal action, MATIN; assay type: in vivo; conditions: for Herbicidal efficacy against MATIN: Table K
How it was run: as §1

[7] = test system: Polygonum convolvulus; experiment: Pre-emergence herbicidal action, POLCO; assay type: in vivo
Description: (§2) 1. Pre-Emergence Herbicidal Action Against Harmful Plants Seeds of monocotyledonous and dicotyledonous weed plants and crop plants are laid out in sandy loam soil in wood-fiber pots and covered with soil. The compounds of the invention, formulated in the form of wettable powders (WP) or as emulsion concentrates (EC), are then applied to the surface of the covering soil in the form of an aqueous suspension or emulsion at a water application rate equating to […], with addition of 0.2% wetting agent. After the treatment, the pots are placed in a greenhouse and kept under good growth conditions for the trial plants. The damage to the test plants is scored visually after a test period of 3 weeks by comparison with untreated controls (herbicidal activity in percent (%): 100% activity=the plants have died, 0% activity=like control plants).
(§3) For comparison, the herbicidal activity of numerous compounds according to the invention was tested with the structurally closest compounds known from the documents WO 2011/035874, WO 2012/028579 and WO 2012/126932, by the pre- and post-emergence method.

[8] = test system: Setaria viridis; experiment: Pre-emergence herbicidal action, SETVI; assay type: in vivo
How it was run: as §1

[9] = test system: Stellaria media; experiment: Pre-emergence herbicidal action, STEME; assay type: in vivo
How it was run: as §1

[10] = test system: Veronica persica; experiment: Pre-emergence herbicidal action, VERPE; assay type: in vivo; conditions: 80 g/ha, comparison with WO 2011035874, Table H
Description: as §2, §3

[11] = test system: Viola tricolor; experiment: Pre-emergence herbicidal action, VIOTR; assay type: in vivo
How it was run: as §1

[12] = test system: Abutilon theophrasti; experiment: Post-emergence herbicidal action, ABUTH; assay type: in vivo; conditions: 80 g/ha
How it was run: (§4)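 Herbicidal effect is rated visually as percent versus untreated plants (100% = dead, 0% = like control) about 3 weeks after spraying. Plants were sown in sandy loam in the greenhouse and sprayed on green parts at the one-leaf stage, 2 to 3 weeks post-sowing.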

[13] = test system: Alopecurus myosuroides; experiment: Post-emergence herbicidal action, ALOMY; assay type: in vivo
How it was run: as §4

[14] = test system: Amaranthus retroflexus; experiment: Post-emergence herbicidal action, AMARE; assay type: in vivo; conditions: 80 g/ha, Table D
How it was run: as §4

[15] = test system: Avena fatua; experiment: Post-emergence herbicidal action, AVEFA; assay type: in vivo
How it was run: as §4

[16] = test system: Pharbitis purpureum; experiment: Post-emergence herbicidal action, PHBPU; assay type: in vivo; conditions: 80 g/ha, Table D
How it was run: as §4

[17] = test system: Setaria viridis; experiment: Post-emergence herbicidal action, SETVI; assay type: in vivo
How it was run: as §4

[18] = test system: Stellaria media; experiment: Post-emergence herbicidal action, STEME; assay type: in vivo
How it was run: as §4

[19] = test system: Viola tricolor; experiment: Post-emergence herbicidal action, VIOTR; assay type: in vivo
How it was run: as §4

[20] = test system: ECHCG; experiment: Post-emergence herbicidal action, ECHCG; assay type: in vivo; conditions: 80 g/ha, Table C
How it was run: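 Weed and crop plants grown in sandy loam in the greenhouse, treated at the one-leaf stage 2–3 weeks after sowing. Damage scored visually after about 3 weeks vs untreated controls (0% = control, 100% = dead).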

[21] = test system: ECHCG; experiment: Pre-emergence herbicidal action, ECHCG; assay type: in vivo, Echinochloa crus-galli
[22] = test system: ECHCG; experiment: Pre-emergence herbicidal action, ECHCG; assay type: in vivo; conditions: 80 g/ha, comparison with WO 2011035874, Table G
Description: as §2

[23] = 80 g/ha, comparison with WO 2011035874, Table G
[24] = dosage 320 g/ha, scored visually after 3 weeks vs untreated controls
[25] = 80 g/ha, comparison with WO 2011035874, Table H

Cn1nnnc1NC(=O)c1ccc(C(F)F)c(S(C)(=O)=O)c1Cl [Example 1-51]
30: Herbicidal efficacy against POLCO ([7]; dosage 20 g/ha, Table K)
100%: Herbicidal efficacy against ABUTH [1, 23] | herbicidal activity ABUTH [1, 24] | herbicidal activity ALOMY [2, 24] | Herbicidal efficacy against AMARE [3, 25] | herbicidal activity AMARE [3, 24] | herbicidal activity AVEFA [4, 24] | herbicidal activity CYPES [5, 24] | herbicidal activity MATIN [6, 24] | herbicidal activity SETVI [8, 24] | Herbicidal activity STEME [9, 24] | Herbicidal efficacy against VERPE [10] | herbicidal activity VIOTR [11, 24] | herbicidal activity ABUTH ([12]; Table D) | herbicidal activity ALOMY ([13]; 80 g/ha, Table C) | herbicidal activity AMARE [14] | herbicidal activity AVEFA ([15]; 80 g/ha, Table C) | Herbicidal activity PHBPU [16] | herbicidal activity SETVI ([17]; 80 g/ha, Table C) | Herbicidal activity STEME ([18]; 80 g/ha, Table D) | herbicidal activity VIOTR ([19]; 80 g/ha, Table D) | Herbicidal activity ECHCG [20]
0%: Herbicidal efficacy against AVEFA [4, 23] | Herbicidal efficacy against CYPES [5, 23] | Herbicidal efficacy against POLCO [7, 25]
60: Herbicidal efficacy against AVEFA ([15]; 5 g/ha)
90%: Herbicidal efficacy against STEME [9, 25]
100: Herbicidal efficacy against ABUTH ([1]; dosage 20 g/ha, Table K) | Herbicidal efficacy against ABUTH ([1]; dosage 80 g/ha, Table K) | Herbicidal efficacy against ABUTH ([1]; dosage 320 g/ha, Table K) | Herbicidal efficacy against ALOMY ([2]; 80 g/ha) | Herbicidal efficacy against ALOMY ([2]; 320 g/ha) | Herbicidal efficacy against AVEFA ([4]; 320 g/ha) | Herbicidal efficacy against CYPES ([5]; 320 g/ha) | Herbicidal efficacy against MATIN ([6]; dosage 80 g/ha) | Herbicidal efficacy against MATIN ([6]; dosage 320 g/ha) | Herbicidal efficacy against SETVI ([8]; 20 g/ha) | Herbicidal efficacy against SETVI ([8]; 80 g/ha) | Herbicidal efficacy against SETVI ([8]; 320 g/ha) | Herbicidal efficacy against VIOTR ([11]; dosage 20 g/ha, Table K) | Herbicidal efficacy against VIOTR ([11]; dosage 80 g/ha, Table K) | Herbicidal efficacy against VIOTR ([11]; dosage 320 g/ha, Table K) | Herbicidal efficacy against ALOMY ([13]; 80 g/ha) | Herbicidal efficacy against AVEFA ([15]; 80 g/ha) | Herbicidal efficacy against SETVI ([17]; 20 g/ha) | Herbicidal efficacy against SETVI ([17]; 80 g/ha) | Herbicidal efficacy against STEME ([18]; 5 g/ha) | Herbicidal efficacy against STEME ([18]; 20 g/ha) | Herbicidal efficacy against STEME ([18]; 80 g/ha) | Herbicidal efficacy against VIOTR ([19]; 5 g/ha) | Herbicidal efficacy against VIOTR ([19]; 20 g/ha) | Herbicidal efficacy against VIOTR ([19]; 80 g/ha) | Herbicidal efficacy against ECHCG ([21]; 20 g/ha) | Herbicidal efficacy against ECHCG ([21]; 80 g/ha) | Herbicidal efficacy against ECHCG ([21]; 320 g/ha)
10%: Herbicidal efficacy against ALOMY [2, 23]
30%: Herbicidal efficacy against ECHCG [22]
60%: Herbicidal efficacy against SETVI [8, 23] | Herbicidal efficacy against VIOTR [11, 25]
80: Herbicidal efficacy against ALOMY ([2]; 20 g/ha) | Herbicidal efficacy against POLCO ([7]; dosage 80 g/ha, Table K)
90: Herbicidal efficacy against AVEFA ([4]; 80 g/ha) | Herbicidal efficacy against CYPES ([5]; 20 g/ha) | Herbicidal efficacy against CYPES ([5]; 80 g/ha) | Herbicidal efficacy against MATIN ([6]; dosage 20 g/ha) | Herbicidal efficacy against POLCO ([7]; dosage 320 g/ha, Table K) | Herbicidal efficacy against ALOMY ([13]; 20 g/ha) | Herbicidal efficacy against AVEFA ([15]; 20 g/ha) | Herbicidal efficacy against SETVI ([17]; 5 g/ha)
40%: Herbicidal efficacy against STEME ([18]; 80 g/ha, comparison with WO2011035874, Table F)
80%: Herbicidal efficacy against ABUTH ([12]; comparison with WO2011035874, Table F)
40: Herbicidal efficacy against ALOMY ([13]; 5 g/ha)
